One compound from patent US20210198201A1, “Orally Active Melanocortin Receptor-4 Compounds” (Palatin Technologies, Inc., priority 2018, published 2021) can be followed below.

As a reminder, the pKi is the negative decadic logarithm of the Ki, by convention in mol/L. A higher pKi goes with a small Ki. By Cmax is commonly meant the maximum level reached in the sampled fluid or tissue. As a reminder, the half-life is the time in which the quantity being followed falls by half.

Each structure is given as a SMILES string. pKi: −log10 of the molar value.

For one data set, the target named is T1, MC1r (Homo sapiens, UniProt Q01726).
T1 construct: expressed in transfected cells; host or cells: HEK-293 (membrane homogenates)
T1 sequence (Q01726 whole entry): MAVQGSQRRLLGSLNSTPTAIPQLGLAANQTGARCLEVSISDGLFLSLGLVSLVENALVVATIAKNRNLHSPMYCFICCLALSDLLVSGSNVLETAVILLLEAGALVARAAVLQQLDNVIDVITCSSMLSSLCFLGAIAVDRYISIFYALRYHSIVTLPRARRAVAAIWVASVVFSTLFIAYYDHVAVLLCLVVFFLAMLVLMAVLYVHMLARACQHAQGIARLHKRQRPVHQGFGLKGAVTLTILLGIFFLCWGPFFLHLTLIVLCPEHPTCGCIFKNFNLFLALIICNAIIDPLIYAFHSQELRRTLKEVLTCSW
The experiment in a line: Competitive inhibition binding assay, MC1r. The settings on record: binding studies. The protocol: A competitive inhibition binding assay is performed using membrane homogenates prepared from HEK-293 cells that express recombinant hMC1ra, hMC4r, hMC3r, or hMC5r, and from B16-F10 mouse melanoma cells (containing endogenous MC1r). In the examples that follow, all values are for human recombinant receptors unless otherwise noted. Assays are performed in 96 well GF/B Millipore multiscreen filtration plates (MAFB NOB10) pre-coated with 0.5% bovine serum albumin (Fraction V). […] After incubation for 60 to 90 minutes at 37° C., the assay mixture is filtered and the membranes washed three times with ice-cold buffer. Filters are dried and counted in a gamma counter for bound radioactivity.
Maximal specific binding (100%) is defined as the difference in radioactivity (cpm) bound to cell membranes in the absence and presence of 1 μM NDP-α-MSH. […] Each assay is conducted in duplicate or triplicate and the actual mean values are described, with results less than 0% reported as 0%. Ki values for test compounds are determined using Graph-Pad Prism® curve-fitting software.

A short description of data set [1]: Plasma concentrations following oral administration in Sprague-Dawley rats. It is filed as in vivo, rat. The note with it: oral 30 mg/kg. As for the experimental part:
Plasma samples were measured at 15 minutes (2 animals) and 30 minutes, 1 hour, 2 hours, 4 hours, 8 hours and 24 hours (3 animals) post oral administration.

Turning to `CC(=O)N1CCC(N(CC(C)C)N2CCN(C(=O)[C@@H](Cc3ccc(Cl)cc3)NC(=O)C(C)(C)N)CC2)CC1` [Compound 7.1, N-[(1R)-2-[4-[(1-acetyl-4-piperidyl)-isobutyl-amino]piperazin-1-yl]-1-[(4-chlorophenyl)methyl]-2-oxo-ethyl]-2-amino-2-methyl-propanamide], the pKi at MC1r is 6.70. This compound also displayed a Tax in data set [1] of 2 h. In data set [1] (rat, plasma), this compound returned a Cmax of 780 ng/mL. Further, the half-life in data set [1] (rat, plasma, read-out: terminal half-life (converted)) is 3.94 h.
